Literature values in US9205144B2, “Identification of conserved peptide blocks in homologous polypeptides” (Dana-Farber Cancer Institute, Inc., priority 2011, dated 2015).

Experiments:
HLA-03 = HLA-03 (Homo sapiens, UniProt P04439)
Chain of HLA-03 (P04439 25-365): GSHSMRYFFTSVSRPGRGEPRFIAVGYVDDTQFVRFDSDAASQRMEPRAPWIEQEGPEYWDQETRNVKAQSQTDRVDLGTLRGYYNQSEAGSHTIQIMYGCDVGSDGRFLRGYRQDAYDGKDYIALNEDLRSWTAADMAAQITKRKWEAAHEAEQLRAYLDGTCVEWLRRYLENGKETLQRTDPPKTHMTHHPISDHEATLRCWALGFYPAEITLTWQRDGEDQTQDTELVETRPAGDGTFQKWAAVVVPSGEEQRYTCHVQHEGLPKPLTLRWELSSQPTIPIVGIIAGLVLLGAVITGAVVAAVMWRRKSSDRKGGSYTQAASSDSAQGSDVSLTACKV
Chain of HLA-03 (P61769 21-119, further chain): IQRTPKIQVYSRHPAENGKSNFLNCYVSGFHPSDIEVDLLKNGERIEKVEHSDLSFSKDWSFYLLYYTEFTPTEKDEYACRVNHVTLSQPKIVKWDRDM

KTFDTEYQK (listed as Dengue virus) [Peptide 1]
known ligand: ligand for HLA-11 (HLA-11) | ligand for HLA-31 (HLA-31) | ligand for HLA-03 (HLA-03)
